Test systems include EKVX NSCLC; M14 melanoma; MDA-MB-231 breast; NCI-H460 lung; NCI-H522 lung; NCI/ADR-RES ovarian; SK-MEL-5 melanoma; SR leukemia; UACC-257 melanoma; UACC-62 melanoma.
Common to all, as to assay: DTP human tumour cell line panel, 48 h

Where “and” joins values, the source holds several entries; their conditions need not be identical. Identical values can stand only once.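 Values below derive from 48-hour exposures of cells grown in 96-well plates, with endpoints linearly interpolated between the two concentrations bracketing the appropriate inhibition level. GI50 = concentration required for 50% inhibition of growth. The concentration for full growth arrest is given as TGI.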

As usually defined, the GI50 is the concentration giving 50% growth inhibition. By TGI is commonly meant the concentration giving total growth inhibition. Read a high TGI as less potent growth arrest. On to `CCN1C(=S)N(CC)C2C1NC(=S)N2/N=C/C=C/c1ccccc1OC` (stereo not drawn), for which the concentration for 50% growth inhibition (GI50) in the assay with EKVX NSCLC was 400 nM; in the assay on M14 melanoma, 179 nM; in the assay on MDA-MB-231 breast, 521 nM; in the assay with NCI-H460 lung it was 335 nM; with NCI-H522 lung, 137 nM; in the assay on NCI/ADR-RES ovarian, 237 nM. Also, the concentration for 50% growth inhibition (GI50) in the assay on SK-MEL-5 melanoma was 137 nM; with SR leukemia, 83.3 nM; in the assay on UACC-257 melanoma it was 21800 nM; in the assay on UACC-62 melanoma it was 330 nM. For the same compound, the TGI with EKVX NSCLC was greater than 100000 nM; with M14 melanoma, 575 nM; in the assay on MDA-MB-231 breast it was 10300 nM; in the assay with NCI-H460 lung, greater than 33400 nM; in the assay with NCI-H522 lung, 1190 nM; in the assay with SK-MEL-5 melanoma, 3530 nM. The values for the TGI in the assay on UACC-257 melanoma and in the assay with UACC-62 melanoma were greater than 100000 nM and 25600 nM, respectively.

With `CCN(C)c1nc(N(C)CC)c2nc(N(C)CC)nc(N(C)CC)c2n1`, the TGI in the assay with EKVX NSCLC, with M14 melanoma, with MDA-MB-231 breast, with NCI-H460 lung, in the assay on NCI-H522 lung and with NCI/ADR-RES ovarian was greater than 100000 nM each time. The TGI with SK-MEL-5 melanoma, with SR leukemia, in the assay with UACC-257 melanoma and in the assay on UACC-62 melanoma was greater than 100000 nM each time.

Consider `O=C1/C(=C/c2ccc(Cl)c(Cl)c2)CN(C(=O)CCN2CCC(=NO)CC2)C/C1=C\c1ccc(Cl)c(Cl)c1`, for which the GI50 was 1310 nM with EKVX NSCLC; 782 nM in the assay with M14 melanoma; 616 nM in the assay with MDA-MB-231 breast; 933 nM with NCI-H460 lung; 369 nM in the assay on NCI-H522 lung; 1020 nM in the assay on NCI/ADR-RES ovarian. Further, the GI50 was 1580 nM in the assay on SK-MEL-5 melanoma, 353 nM in the assay with SR leukemia, 1740 nM in the assay on UACC-257 melanoma and 664 nM in the assay with UACC-62 melanoma. For the same compound, the TGI was found to be 3050 nM with EKVX NSCLC; 2230 nM with M14 melanoma; 1850 nM in the assay on MDA-MB-231 breast; 2570 nM with NCI-H460 lung; 1590 nM in the assay on NCI-H522 lung; 4040 nM in the assay on NCI/ADR-RES ovarian. Moreover, the TGI was 3000 nM in the assay with SK-MEL-5 melanoma, greater than 100000 nM with SR leukemia, 3860 nM in the assay on UACC-257 melanoma and 1870 nM with UACC-62 melanoma.

As for `CC(Br)C(=O)NC(CO)C(=O)O` (stereo not drawn), the TGI with EKVX NSCLC, in the assay with M14 melanoma, in the assay on MDA-MB-231 breast, with NCI-H460 lung, in the assay on NCI-H522 lung and in the assay on NCI/ADR-RES ovarian was greater than 100000 nM each time. Moreover, the TGI in the assay with SK-MEL-5 melanoma, in the assay on SR leukemia, in the assay with UACC-257 melanoma and in the assay on UACC-62 melanoma was greater than 100000 nM each time.

For the compound `COc1ccc(C(=O)c2cc(OC)c(OC)c(OC)c2OC)cc1O`, the GI50 is 28600 nM in the assay on EKVX NSCLC; 3100 nM with M14 melanoma; 5820 nM with MDA-MB-231 breast; 3590 nM in the assay with NCI-H460 lung; 2370 nM in the assay on NCI-H522 lung; 1970 nM in the assay with NCI/ADR-RES ovarian. The GI50 in the assay on SK-MEL-5 melanoma is 2930 nM; in the assay with SR leukemia it was 610 nM; in the assay on UACC-257 melanoma it was 4750 nM; with UACC-62 melanoma, 4300 nM. Besides, the concentration for total growth inhibition (TGI) was greater than 100000 nM in the assay on EKVX NSCLC; greater than 100000 nM with M14 melanoma; greater than 100000 nM in the assay with MDA-MB-231 breast; greater than 100000 nM in the assay on NCI-H460 lung; 7440 nM in the assay with NCI-H522 lung; 7090 nM with NCI/ADR-RES ovarian. In addition, the TGI with SK-MEL-5 melanoma, in the assay on SR leukemia, in the assay with UACC-257 melanoma and in the assay on UACC-62 melanoma was greater than 100000 nM in each case.

In the case of `Cc1nn(-c2ccc(Cl)cc2)c2ncnc(N/N=C/c3ccccc3O)c12`, the GI50 is 960 nM and 993 nM with EKVX NSCLC; 523 nM and 340 nM with M14 melanoma; 694 nM and 375 nM in the assay on MDA-MB-231 breast; 375 nM and 347 nM in the assay with NCI-H460 lung; 874 nM and 321 nM with NCI-H522 lung; 372 nM and 356 nM with NCI/ADR-RES ovarian. In addition, the GI50 in the assay with SK-MEL-5 melanoma is 728 nM and 509 nM; with SR leukemia, 445 nM and 206 nM; in the assay on UACC-257 melanoma, 2680 nM and 1310 nM; in the assay on UACC-62 melanoma, 1600 nM and 910 nM. Moreover, the TGI with EKVX NSCLC was 30800 nM and > 100000 nM; in the assay on M14 melanoma, 2430 nM and 2110 nM; in the assay with MDA-MB-231 breast, greater than 65300 nM; in the assay on NCI-H460 lung, 3140 nM and 5670 nM; in the assay with NCI-H522 lung it was greater than 69600 nM; in the assay on NCI/ADR-RES ovarian, 16900 nM and 17400 nM. The TGI was 2450 nM and 1470 nM in the assay on SK-MEL-5 melanoma; 43500 nM with SR leukemia; 16100 nM and 39300 nM in the assay with UACC-257 melanoma; 19900 nM and 6950 nM with UACC-62 melanoma.

The values are drawn from PubChem BioAssay (NCI).
